Structures are written as SMILES.

The experiment has as its system Plasmodium falciparum. As to the kind of experiment: GSK_TCMDC: Inhibition of Plasmodium falciparum 3D7 in whole erythrocytes, using parasite LDH activity as an index of growth. The class given is functional, organism-based. Particulars: Plasmodium falciparum, 3D7.
In turn, `Cc1ccc2nc(C)cc(N/N=C/c3cccc([N+](=O)[O-])c3)c2c1` had an XC50 of 876 nM.

For `CN(C)C(C)(C)CN(Cc1ccc(-c2ccc(C(F)(F)F)cc2)cc1)C(=O)Cn1c(CCc2cccc(F)c2F)nc(=O)c2ccccc21`, the XC50 came to 827 nM.

`CC=CCON1C(=N)NC(=N)NC1(C)C` gave an XC50 of 27.9 nM.

With `COc1cccc(NC(=O)COc2ccc(C(=O)Nc3nc4ccccc4[nH]3)cc2)c1`, the XC50 is 970 nM.

Take `Cc1ccccc1/N=C1\NC(=S)N(c2cccc(C(F)(F)F)c2)C12CCC(C(C)(C)C)CC2` (stereo unspecified): the XC50 was determined as 973 nM.

With `O=S(=O)(Nc1cccc(CCN2CCCCC2CCN2CCCC2)c1)c1ccc(Oc2ccccc2)cc1` (stereo unspecified), the XC50 was 1050 nM.

As for `c1ccc(-n2ncc(CNCc3ccc(-c4ccc(-c5nc6ccccc6[nH]5)s4)cc3)n2)cc1`, the XC50 worked out at 1400 nM.

Consider `CO/C(=C\C=C\c1cc2cc(Cl)c(Cl)cc2[nH]1)C(=O)NCCCN1CCN(C2CCCCC2)CC1`, for which the XC50 came out at 1010 nM.

For the compound `c1ccc(CN2CCN(c3cc(-c4cncc(-c5ccccc5)c4)nc(-c4ccccc4)n3)CC2)cc1`, the XC50 came to 1040 nM.

Compound `Cc1[nH]c(C)c(-c2ccc(OCc3cc(F)cc(F)c3)nc2)c(=O)c1Cl` had an XC50 of 86.8 nM.

For `CC(C)N(CCOc1ccc2c(c1)N(C(=O)Nc1ccc(Cl)c(Cl)c1)CC2)C(C)C`, the XC50 was 367 nM.

The compound `Oc1ccc(CCNc2nc(NCCOc3cccc4ccccc34)nc(N3CCNCC3)n2)cc1` had an XC50 of 901 nM.

The compound `COc1ccc(-c2cccc(NC(=O)c3ccc(C#N)cc3)c2)cc1CN1CCCN(C)CC1` gave an XC50 of 756 nM.

`Cc1onc(-c2ccccc2)c1-c1nc(NCc2ccccc2Cl)no1` came in with an XC50 of 699 nM.

For `CCc1cc(Br)c2c(c1)C(NCCCNc1cc(=O)c3ccccc3[nH]1)CCN2` (stereo unspecified), the XC50 is 852 nM.

Turning to `Cc1c(N)ccc2[nH]c(-c3ccc(N)cc3)nc12`, the XC50 turned out to be 1210 nM.

The compound `FC(F)(F)c1cccnc1N1CCC(Nc2nc3cc(Cl)ccc3[nH]2)CC1` yielded an XC50 of 646 nM.

Compound `CN1CCN(CCCN(Cc2cccc(-c3ccc(CNC4CCCC4)cc3)c2)C(=O)/C=C/c2ccccc2)CC1` had an XC50 of 746 nM.

`CCCCOP(=O)(OCCCC)C(=Cc1ccc(O)c2ccccc12)P(=O)(OCCCC)OCCCC`: the XC50 came to 1070 nM.

In the case of `COc1ccc2nccc([C@@H](O)CN3CCC(NCc4cc5ccccc5o4)CC3)c2c1`, the XC50 was 658 nM.

Regarding `Cc1cn(CC(=O)Nc2cccc(-c3cccc(-c4nc5cccc(C)c5[nH]4)c3)c2)c(=O)[nH]c1=O`, the XC50 amounted to 581 nM.

Turning to `O=C(N[C@H]1CCN(Cc2ccc(OCCN3CCCC3)c(Cl)c2)C1)c1ccc(Cl)c(Cl)c1`, the XC50 was 921 nM.

Turning to `CCNc1cc(C(=O)N[C@@H](Cc2ccoc2)[C@H](O)CNC(C)CCCC(C)C)cc(N2CCCCS2(=O)=O)c1` (stereo partly specified), the XC50 worked out at 619 nM.

Compound `COc1ccc(S(=O)(=O)N2CCCc3ccc(Br)cc32)cc1N1CCN(C(=O)C(Cl)(Cl)Cl)CC1` showed an XC50 of 809 nM.

Regarding `C=CC[C@H](C[C@H](O)[C@H](Cc1ccccc1)NC(=O)c1ccc(-n2cccn2)cc1)C(=O)NC1CCCCC1`, the XC50 stood at 810 nM.

The compound `Cc1cccc2nc(-c3cccc(-c4cccc(CN5CCCC5CN)c4)c3)[nH]c12` (stereo unspecified) showed an XC50 of 767 nM.

In the case of `CC1(C)N=C(N)N=C(N)N1c1ccccc1`, the XC50 turned out to be 327 nM.

For `O=[N+]([O-])c1cc(C(c2ccc(O)c([N+](=O)[O-])c2)C(Cl)(Cl)Cl)ccc1O`, the XC50 came to 734 nM.

`Cc1cccc2nc(-c3cccc(-c4cccc(NC(=O)Cc5ccc[n+]([O-])c5)c4)c3)[nH]c12` showed an XC50 of 635 nM.

Turning to `O=C(Nc1ccc(-c2cccc(-c3nc4ccccc4[nH]3)c2)cc1)Nc1ccc(F)c(F)c1F`, the XC50 came out at 182 nM.

For the compound `N#Cc1ccc(N2CCN(Cc3cccc(-c4ccc(-c5nc6ccccc6[nH]5)cc4)c3)CC2)nc1`, the XC50 was 1240 nM.

`COc1ccc2nccc(NCC3(O)CCC(NCc4cc5c(cn4)OCCO5)CC3)c2n1` (stereo unspecified): the XC50 was found to be 664 nM.

Turning to `CCCCCCNC(=O)C1Cc2c([nH]c3ccc(Br)cc23)C2(CCN(CCc3ccccc3)CC2)N1` (stereo unspecified), the XC50 is 788 nM.

Compound `CC(C)n1ncc2c3c(N)nc(N)nc3ccc21` yielded an XC50 of 333 nM.

As to `CN(C)CCCN1CCN(C(=O)c2cccc(-c3noc(C(F)(F)F)n3)c2)CC1`, the XC50 came to 353 nM.

Compound `CCN(CC)c1nc(N)c2c(N)nc3c(c2c1C#N)C(=O)CN3Cc1ccccc1` yielded an XC50 of 70.8 nM.

Compound `Oc1ccc2[nH]c(-c3cccc(F)c3)nc2c1CN1CCC(N2CCCC2)CC1` displayed an XC50 of 184 nM.

`CC(C)c1cc(C(=O)N[C@@H](Cc2ccccc2)[C@H](O)CNC2CCCCC2)cc(N2CCCC2=O)c1` registered an XC50 of 121 nM.

With `Cc1cccc(-n2c(=O)c3c4c(sc3n3c(SCCC(C)C)nnc23)CCCC4)c1`, the XC50 was 763 nM.

`CCCCCCC(C)c1cc(O)c2c(c1)OC(=O)CC2(CC)c1ccccn1` (stereo unspecified) came in with an XC50 of 335 nM.

With `Clc1ccccc1/C=C/c1cncnc1Nc1ccc2[nH]c(Cc3ccccc3)nc2c1`, the XC50 is 915 nM.

`O=C(Nc1cccc(CN2CCCN(CCc3ccccc3)CC2)c1)c1ccc(Cl)c(Cl)c1` displayed an XC50 of 952 nM.

On to `COc1ccc(Nc2nc(NCc3cccnc3)cc(-c3ccc(OC)cc3)n2)cc1`, for which the XC50 worked out at 1400 nM.

As for `FC(F)(F)c1ccc(/C=C/c2cncnc2Nc2ccc3[nH]c(Cc4ccccc4)nc3c2)cc1`, the XC50 amounted to 608 nM.

The compound `O=C(CCc1c[nH]cn1)Nc1cccc(-c2ccc(-c3nc4ccccc4[nH]3)s2)c1` gave an XC50 of 759 nM.

The compound `O=C(CC1SC(N2N=C(c3cccs3)CC2c2ccccc2)=NC1=O)Nc1ccc(Cl)cc1` (stereo unspecified) registered an XC50 of 1680 nM.

`O=C(Nc1cccc(-c2csc(NC(=O)c3ccc4ccccc4c3)n2)c1)c1ccc2ccccc2c1` had an XC50 of 711 nM.

Consider `CCCNC(=O)C1Cc2cc(OC)c(OC)cc2C2(N1)C(=O)N(Cc1cccc(OC)c1)c1ccccc12` (stereo unspecified), for which the XC50 amounted to 863 nM.

`CC(=O)Nc1nnc(SCc2c(C)cc(C(C)(C)C)cc2C)s1` displayed an XC50 of 704 nM.

Consider `N#Cc1cccc(NC(=O)Nc2cccc(OC3CCN(Cc4ccccc4)CC3)c2)c1`, for which the XC50 turned out to be 841 nM.

In turn, `CCN(CC)CCCN(C(=O)Nc1ccc(C#N)cc1)c1nc(-c2ccc(F)cc2)cs1` showed an XC50 of 650 nM.

Consider `CC(=O)Nc1cccc(/C=C/C(=O)N2CCC(N3CCCCC3)CC2)c1`, for which the XC50 was found to be 1050 nM.

As for `CCCN(C(=O)c1ccccc1C)c1nnc(-c2ccccc2C)s1`, the XC50 amounted to 1110 nM.

`Clc1cc(Nc2ncnc3cc(C#C[C@H]4CCCN4)sc23)cc2nc(Cc3ccccc3)[nH]c12` had an XC50 of 852 nM.

The compound `CCCCOc1cc(CNCCCCCCNCc2cc(OCCCC)cc3ccccc23)c2ccccc2c1` yielded an XC50 of 736 nM.

Consider `O=S(=O)(Nc1ccc2nccc(N3CCNCC3)c2c1)c1ccc(-c2ccccc2)cc1`, for which the XC50 was found to be 977 nM.

Consider `CCOc1ccc(C2CCN(CCCCNC(=O)c3ccc(NC(=O)c4ccc(Cl)cc4)cc3)CC2)c(CC)c1`, for which the XC50 is 786 nM.

Turning to `Nc1ncc(-c2ccsc2)c2ccc(-c3ccc4cn[nH]c4c3)cc12`, the XC50 came out at 814 nM.

`Fc1ccc2[nH]c(-c3cccc(-c4ccc(CNCC5CCCO5)cc4)c3)nc2c1` (stereo unspecified) returned an XC50 of 541 nM.

On to `CN(C)c1ccc(-c2csc(C(=O)NC3CCN(Cc4ccc(C(C)(C)C)cc4)C3)c2)cc1` (stereo unspecified), for which the XC50 was 947 nM.

As for `O=C(Nc1ccc(N2CCN(Cc3c[nH]c4cc(F)ccc34)CC2)cc1)c1ccccc1-c1ccc(C(F)(F)F)cc1`, the XC50 came out at 985 nM.

`COc1ccc(-c2ccc(NC(=O)c3ccc(Cl)cc3)cc2)cc1CN(C)CCO`: the XC50 is 813 nM.

Consider `O=C(N[C@@H](CC1CCCCC1)C(=O)NC1CC1)c1ccc(O)c(-c2cccc(C(F)(F)F)c2)c1`, for which the XC50 was determined as 773 nM.

Compound `CC(C)(C)c1ccc(Cc2cccc3nc(N)nc(N)c23)cc1` displayed an XC50 of 834 nM.

In turn, `Cc1cc(N2CCCC2)nc(Nc2ccc(NC(=O)c3ccccc3)cc2)n1` had an XC50 of 977 nM.

`O=C(CCCCCNC(=O)c1ccc(O)c(-c2ccc(Cl)c(Cl)c2)c1)NCCc1ccc(Cl)c(Cl)c1` yielded an XC50 of 756 nM.

The compound `CO/C(=C\C=C\c1cc2cc(Cl)c(Cl)cc2[nH]1)C(=O)NC1CC2CCCC(C1)N2C` (stereo unspecified) gave an XC50 of 1000 nM.

As for `CCCCN1CCN(CCCCNc2c3ccccc3nc3ccccc23)CC1`, the XC50 is 167 nM.

The compound `Cc1cc(-c2ncc[nH]2)ccc1-c1ccc(C(=O)N2CCc3cc4c(cc32)C2(CCN(C)CC2)CO4)cc1` had an XC50 of 800 nM.

Compound `CN(C)CCCN(C)c1cccc2c1nc(-c1cccnc1)n2CCNCc1ccccc1` returned an XC50 of 1390 nM.

With `Nc1nc(N)c2c(ccc3nn(C4CCCC4)cc32)n1`, the XC50 is 286 nM.

`Nc1nc(N)c2c(Oc3cc(Cl)c(Cl)c(Cl)c3)cccc2n1` registered an XC50 of 804 nM.

In turn, `CCC1(CC)C(=O)N=C(N2CCCCC2)N(C)C1=O` had an XC50 of 303 nM.

`COc1ccc(CNC(=O)c2cnc3c(O)cccc3c2Nc2cccc(NC(=O)c3ccc(Cl)c(Cl)c3)c2)cc1` returned an XC50 of 604 nM.

Turning to `COc1ccccc1N1CCN(c2cccc(F)c2C#N)CC1`, the XC50 came to 965 nM.

Compound `CCn1cc(CN2CCCC(C(=O)Nc3ccc(-c4nc5ccccc5[nH]4)cc3)C2)c(C)n1` (stereo unspecified) displayed an XC50 of 802 nM.

Compound `CN1CCCN(Cc2ccc(-c3cccc(NC(=O)c4ccc(F)cc4)c3)cc2)CC1` gave an XC50 of 1090 nM.

`COc1cc2nc(SCCCC#N)n(C3CCCCCC3)c(=N)c2cc1OC`: the XC50 was determined as 1140 nM.

The compound `CC(C)CN(Cc1c(O)ccc2[nH]c(-c3ccc(F)cc3F)nc12)CC(C)C` registered an XC50 of 802 nM.

For `O=C(CCCCCNC(=O)c1ccc(O)c(-c2ccc(Cl)c(Cl)c2)c1)NCCN1CCCCC1`, the XC50 was 886 nM.

Compound `O=C(NCCc1ccc(Cl)c(Cl)c1)[C@@H]1CCCN1C(=O)c1ccc(O)c(-c2ccc(Cl)c(Cl)c2)c1` displayed an XC50 of 550 nM.

Compound `CCCOc1ccc(NC(=O)c2cccs2)cc1Cl` displayed an XC50 of 859 nM.

Regarding `O=C(/C=C/c1ccc(Cl)c(Cl)c1)NC1CCC(CN2CCC(c3nc4cccnc4[nH]3)CC2)CC1` (stereo unspecified), the XC50 was determined as 1230 nM.

`O=C(/C=C/c1ccc(Cl)c(Cl)c1)NCCCCCN1CCC(NC(=O)Nc2cc(Cl)nc(Cl)c2)CC1` showed an XC50 of 976 nM.

The compound `CC(C)(CNCc1ccc(OC(F)(F)F)cc1)c1nc(-c2ccc(Cl)c(O)c2)c(-c2ccncc2)[nH]1` yielded an XC50 of 545 nM.

On to `c1ccc(-c2nc(Nc3ccncc3)sc2-c2ccccc2)cc1`, for which the XC50 amounted to 812 nM.

Source of the values: ChEMBL document CHEMBL1157539, “Thousands of chemical starting points for antimalarial lead identification” (Nature, 2010).
